Results as given in ChEMBL document CHEMBL1201862, “PubChem BioAssay data set” (2004).
Active and inactive are the calls of the source.

Tests used:
[1] = molecular target: T1, Caspase-6 (Homo sapiens, UniProt P55212); test: inhibition of CASP6 peptide cleavage – biochemical, VEID-R110 fluorescence, cherry-pick, dose response (AID 720632)
T1 sequence (P55212 whole entry): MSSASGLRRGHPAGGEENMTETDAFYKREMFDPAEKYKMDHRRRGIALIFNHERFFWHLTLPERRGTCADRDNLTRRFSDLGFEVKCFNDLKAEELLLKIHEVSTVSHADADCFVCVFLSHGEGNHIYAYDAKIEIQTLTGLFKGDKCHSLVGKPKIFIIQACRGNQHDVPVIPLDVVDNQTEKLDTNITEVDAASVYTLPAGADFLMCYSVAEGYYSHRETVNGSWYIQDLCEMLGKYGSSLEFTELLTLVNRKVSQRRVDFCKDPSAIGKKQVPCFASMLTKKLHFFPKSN

[2] = tested on: H9c2; test: cells; assay type: functional, cell-based; conditions: Rattus norvegicus, H9c2, Myocardium;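 note: confirmatory concentration-response retest of ultra-high-throughput screening hits for modulation of myocardial damage; cell death induced by hydrogen peroxide oxidative stress; compound pretreatment for 60 min then peroxide exposure for 2 h; potency is for protecting the cells against peroxide damage rather than for killing them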
[3] = molecular target: Disintegrin and metalloproteinase domain-containing protein 17 (Homo sapiens, UniProt P78536); test: exosite inhibitors of ADAM17, dose response, biochemical (AID 743260)
[4] = molecular target: T2, Zinc finger protein mex-5 (Caenorhabditis elegans, UniProt Q9XUB2); test: potency of MEX-5 RNA-binding blockers – biochemical, C. elegans, fluorescence polarization, dose response (AID 1960)
T2 sequence (Q9XUB2 whole entry): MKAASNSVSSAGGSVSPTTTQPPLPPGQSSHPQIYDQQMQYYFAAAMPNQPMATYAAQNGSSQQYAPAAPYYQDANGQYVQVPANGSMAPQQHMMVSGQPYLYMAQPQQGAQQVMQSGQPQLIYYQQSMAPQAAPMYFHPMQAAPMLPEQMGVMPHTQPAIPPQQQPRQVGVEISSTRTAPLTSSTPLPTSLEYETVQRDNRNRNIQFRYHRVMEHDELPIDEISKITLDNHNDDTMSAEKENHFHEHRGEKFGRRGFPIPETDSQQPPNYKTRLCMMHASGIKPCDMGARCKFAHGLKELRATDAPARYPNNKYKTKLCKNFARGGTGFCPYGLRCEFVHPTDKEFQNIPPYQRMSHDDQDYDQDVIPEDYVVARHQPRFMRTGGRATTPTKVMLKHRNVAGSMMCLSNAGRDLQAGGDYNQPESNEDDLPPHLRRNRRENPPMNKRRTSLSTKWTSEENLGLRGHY

[5] = molecular target: T3, RNA-binding protein pos-1 (Caenorhabditis elegans, UniProt G5EF15); test: disruptors of C. elegans POS-1 RNA interaction – biochemical, fluorescence polarization, dose response (AID 1964);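 note: purified POS-1 fused to maltose binding protein made in E. coli; potency of compounds blocking POS-1 binding to fluorescent RNA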
T3 sequence (G5EF15 whole entry): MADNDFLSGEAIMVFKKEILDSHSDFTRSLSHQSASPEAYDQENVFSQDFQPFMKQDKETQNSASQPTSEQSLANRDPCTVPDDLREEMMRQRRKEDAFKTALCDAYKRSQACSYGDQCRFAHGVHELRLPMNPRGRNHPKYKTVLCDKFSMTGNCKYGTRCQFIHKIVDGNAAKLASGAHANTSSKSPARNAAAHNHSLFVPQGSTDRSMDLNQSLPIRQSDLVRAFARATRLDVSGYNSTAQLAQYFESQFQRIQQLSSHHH

[6] = molecular target: T4, Protein Tat (Human immunodeficiency virus type 1 group M subtype B (isolate HXB2)(HIV-1), UniProt P04608); assay type: functional;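 note: tat binding to TAR RNA read out by fluorescence polarization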
T4 sequence (P04608 whole entry): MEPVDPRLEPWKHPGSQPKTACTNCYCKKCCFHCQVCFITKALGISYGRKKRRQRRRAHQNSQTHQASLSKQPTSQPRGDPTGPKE

[7] = viability loss in THP-1 monocytes – THP-1 cells, cytotoxicity control for Vif-APOBEC3G degradation inhibitor project, dose response (AID 1117359); assay type: functional; conditions: THP-1
[8] = molecular target: T5, Long-chain-fatty-acid--AMP ligase FadD28 (Mycobacterium tuberculosis, UniProt P9WQ59); test: Fluorescence polarization aasay to screen for inhibitors that compete for the binding of FadD28 to a bisubstrate Measured in Biochemical System Using Plate Reader - 2147-01_Inhibitor_Dose_CherryPick_Activity.; assay type: functional, Mycobacterium tuberculosis H37Rv
T5 sequence (P9WQ59 whole entry): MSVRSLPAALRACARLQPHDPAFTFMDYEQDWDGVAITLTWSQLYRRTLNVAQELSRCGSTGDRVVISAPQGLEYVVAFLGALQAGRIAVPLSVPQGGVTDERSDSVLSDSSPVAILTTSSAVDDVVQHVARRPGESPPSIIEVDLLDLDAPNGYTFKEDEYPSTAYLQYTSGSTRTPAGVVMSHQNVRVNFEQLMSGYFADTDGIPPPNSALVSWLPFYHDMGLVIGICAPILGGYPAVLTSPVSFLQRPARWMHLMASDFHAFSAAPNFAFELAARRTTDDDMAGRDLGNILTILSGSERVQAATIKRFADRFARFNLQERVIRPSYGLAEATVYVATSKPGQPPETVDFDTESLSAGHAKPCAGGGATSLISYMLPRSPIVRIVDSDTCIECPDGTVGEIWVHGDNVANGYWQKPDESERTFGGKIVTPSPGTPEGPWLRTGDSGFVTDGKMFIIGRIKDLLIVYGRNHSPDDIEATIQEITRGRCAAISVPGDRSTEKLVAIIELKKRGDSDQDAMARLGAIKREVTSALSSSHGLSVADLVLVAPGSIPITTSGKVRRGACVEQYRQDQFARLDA

[9] = viability loss in HEK293 cells – cell-based, plate reader, cherry-picked samples, cytotoxicity control, dose response (AID 743446); assay type: functional
[10] = blockade of melanocortin 4 receptor signaling – cell-based, plate reader, cherry pick, counter-screen for LGR2 antagonist project, dose response (AID 743444); assay type: functional;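 note: transfected HEK 293 cells stimulated with alpha-MSH peptide; potency of inhibitors of the alpha-MSH evoked signal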
[11] = blockers of bursicon-stimulated LGR2 cAMP reporter – cell-based, HEK293, CRE-luciferase reporter, cherry pick, set 2, dose response (AID 743343); assay type: functional;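 note: transfected cells were stimulated with diluted bursicon conditioned medium after compound addition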
[12] = A549 cell cytotoxicity, dose response, cytotoxicity control, plate reader, cherry-pick, antagonist series (AID 743412); assay type: functional, cell-based
[13] = toxicity toward HepG2 liver cells – cell-based, plate reader, cherry-pick, antagonist series, cytotoxicity control, dose response (AID 743416); assay type: functional
[14] = A cytotoxicity screen of small molecule inhibitors of the PhoP region in Salmonella typhi identified in the primary screen. [Related pubchem assays: 1850, 1864, 1985 ]; assay type: functional
[15] = blockers of HIV-1 envelope-mediated cell-cell fusion – cherry-pick, dose response (AID 652057); assay type: functional, cell-based
[16] = HIV-1 AD8 envelope cell-cell fusion blockers – cherry-pick, dose response (AID 652062); assay type: functional, cell-based;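 note: luciferase signal from cell-cell fusion driven by HIV-1 clade B AD8 Env; potency is for inhibitors of fusion seen as a drop in luminescence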
[17] = blockers of HIV-1 ZM109 envelope-driven cell-cell fusion – HeLa effector, CEM target cells, luciferase, cherry-pick, dose response (AID 652058); assay type: functional, cell-based;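 note: luciferase signal from HIV-1 Env mediated cell-cell fusion of effector and target cells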
[18] = off-target signal loss in HeLa-CEM21 co-culture – HeLa F-luc CTL cells, cherry-picked, counter-screen for HIV-1 Env fusion inhibitor project, dose response (AID 652040); assay type: functional, cell-based;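 note: potency for signal decrease marking cytotoxic or nonspecific inhibition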

Sequence of Disintegrin and metalloproteinase domain-containing protein 17 (P78536 whole entry, the tested form may be a part): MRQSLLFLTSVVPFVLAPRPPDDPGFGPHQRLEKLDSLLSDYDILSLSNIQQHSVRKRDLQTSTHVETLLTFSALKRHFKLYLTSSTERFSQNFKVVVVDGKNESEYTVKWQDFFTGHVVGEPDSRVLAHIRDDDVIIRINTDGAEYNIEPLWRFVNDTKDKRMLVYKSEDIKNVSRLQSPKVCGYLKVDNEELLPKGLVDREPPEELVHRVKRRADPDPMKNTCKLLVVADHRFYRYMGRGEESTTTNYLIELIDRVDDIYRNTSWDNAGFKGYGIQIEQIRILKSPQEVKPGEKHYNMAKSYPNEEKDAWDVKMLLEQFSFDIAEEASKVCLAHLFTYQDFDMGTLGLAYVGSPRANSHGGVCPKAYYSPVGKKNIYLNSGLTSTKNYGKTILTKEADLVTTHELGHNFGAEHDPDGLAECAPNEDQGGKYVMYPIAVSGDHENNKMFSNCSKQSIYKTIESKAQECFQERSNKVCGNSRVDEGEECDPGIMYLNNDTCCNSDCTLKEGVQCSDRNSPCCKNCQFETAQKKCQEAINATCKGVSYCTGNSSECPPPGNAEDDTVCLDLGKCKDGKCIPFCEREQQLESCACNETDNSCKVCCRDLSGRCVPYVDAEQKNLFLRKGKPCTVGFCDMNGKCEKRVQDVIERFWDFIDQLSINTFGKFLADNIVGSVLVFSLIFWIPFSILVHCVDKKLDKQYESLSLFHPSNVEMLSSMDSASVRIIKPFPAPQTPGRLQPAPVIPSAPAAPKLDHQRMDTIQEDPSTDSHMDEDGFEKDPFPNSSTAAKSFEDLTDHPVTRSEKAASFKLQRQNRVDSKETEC

Question: With `O=C(NN1C(=O)C2CC=C(Cl)CC2C1=O)c1ccncc1` (stereo unspecified) as the compound, how does the AC50 [1] read?
Answer: 16.5 µM (active)

Question: For `O=C1OCCN1C(=O)[C@H]1[C@H](c2ccc([N+](=O)[O-])cc2)C(c2ccccc2)=NN1c1ccc(Br)cc1`, which IC50 [2] is on record?
Answer: 15.2 µM (active)

Question: And the IC50 [3]?
Answer: > 69.5 µM (inactive)

Question: For `Cc1cc(/C=N/NC(=O)C(O)(c2ccccc2)c2ccccc2)c(C)n1-c1cccc(C(=O)O)c1`, which AC50 [1] is on record?
Answer: 1.78 µM (active)

Question: What does the source list for `Cc1cccc(N2C(=O)/C(=C/c3ccc(CN(CCC#N)S(C)(=O)=O)o3)C(=O)NC2=S)c1`?
Answer: EC50 [4]: 41.2 µM (active); EC50 [5]: 67 µM (active); IC50 [6]: > 100 µM (active)

Question: With `Cn1cccc1/C=C1/C(=O)NC(=O)N(Cc2ccc(F)cc2)C1=O` as the compound, how does the CC50 [7] read?
Answer: > 40 µM (active)

Question: Which CC50 [7] does the source give for `Cc1ccc(S(=O)(=O)NCCC(=O)N2CCN(C/C=C/c3ccccc3)CC2)cc1` here?
Answer: > 40 µM (active)

Question: Which AC50 [8] does the source give for `COc1cccc(C2CC(c3ccccc3)=NN2S(=O)(=O)c2ccccc2)c1OC` (stereo unspecified) here?
Answer: 62.2 µM (active)

Question: Which results are given for `Cc1ccsc1/C=N\NC(=O)c1[nH]nc2c1CCC2`?
Answer: AC50 [9]: 16.4 µM (active); AC50 [10]: 7.75 µM (active); AC50 [11]: 6.59 µM (active); AC50 [12]: 3.65 µM (active); AC50 [13]: 4.37 µM (active)

Question: With `Cc1ccsc1/C=N/Nc1ccc(C(=O)O)cc1` as the compound, how does the EC50 [14] read?
Answer: > 50 µM (active)

Question: For `O=C(Cc1ccccc1)N1CCCCN2[C@H](CO)[C@@H](c3ccc(C#Cc4ccccc4)cc3)[C@H]2C1`, which AC50 [1] is on record?
Answer: 47.3 µM (active)

Question: With `C=C1CCN([C@H](C(=O)OCc2ccc(C)cc2)C(C)C)S(=O)(=O)c2ccccc21` as the compound, how does the AC50 [15] read?
Answer: 3.35 µM (active)

Question: And the AC50 [16]?
Answer: 13.2 µM (active)

Question: And the AC50 [17]?
Answer: 7.43 µM (active)

Question: And the AC50 [18]?
Answer: 5.69 µM (active)
